Consider two compounds from US20250248393A1, “METHOD OF RELEASING A SEMIOCHEMICAL IN THE ENVIRONEMENT BY PASSIVE DIFFUSION, SYSTEM AND MEANS, ESPECIALLY STICKS, TO THIS END, AND USES THEREOF” (SIGNS, priority 2024, published 2025).

Structures are written as SMILES.

Holding throughout (assay type): physicochemical
Data set [1] in a line: Indirect assay of rod diffuser solution (GC/FID). To be noted: stick diffuser solution, despecified pheromone. The method, then:
Solution integrity was checked at each analysis time. Before each indirect assay, the vial was weighed to visualize mass loss over time. Each vial contained six sticks. • Specifications: the solution must lose mass over time. • Result: Compliant—See FIG. 9 This is the same analytical method as for the diffuser block study, only the sample preparation differs. 1.25 g of solution were weighed into a 25 mL volumetric flask and the volume made up to the mark with acetone. The resulting solution is transferred to a 1.5 mL GC vial for analysis. This is exactly the same calibration range as for the diffuser block study.

Data set [2] is described as follows: Pheromone migrated to the stick tips (GC/FID). To be noted: on stick tips, despecified pheromone. How it is done: In the course of this study, we also measured the amount of pheromone migrating on the sticks, to check that the pheromone had migrated to the top of the sticks, helping it to diffuse into the air. To do this, the test is the same as for the diffuser blocks: 2.5 g of stick tips are cut off and placed in a 50 mL flask, which is then placed in an ultrasonic bath for one hour. The resulting solution is filtered (to avoid injecting particles into the instrument) and placed in a chromatographic vial for analysis.

Data set [3] can be described thus: F3 block stability study in sodium stearate aqueous gel (GC-MS). To be noted: after 3 months. The method, then: Aqueous sodium stearate gel is a method used by SIGNS for several of the pheromones it markets (pork, poultry, rabbit). The sodium stearate matrix is cast at high temperature (60° C.) and contains 2% pheromone. In this study, matrix samples are taken by coring, and the active ingredients are extracted by apolar solvent, using the SIGNS-validated quality control method. Extracts are analyzed by GC-MS. […] Given this observation, formula F3 cannot be used in blocks for passive diffusion, so a change of galenic formulation is necessary.

Data set [4] in a line: F3 sticks device, direct diffusion, 40 mL and four sticks (SPME GC/MS). To be noted: four sticks. How it is done: Three devices containing 40 mL of F3 feline facial pheromone product and four rattan sticks were prepared and left on diffusion. Every Monday, Wednesday and Friday, the diffusion of the pheromone in air was checked by analysis by gas chromatography coupled with mass spectrometer (GC/MS) and SPME (solid phase microextraction) until there is no liquid left (about 22 days).
To that purpose, the studied device was taken and placed into a closed space (in our case an aquarium turned over) containing the SPME fiber as shown on FIG. 24.
The SPME fiber was left for two hours to give the time for the molecules to adsorb on the fiber, then the fiber was injected into the GC/MS instrument for analysis.
Analysis were carried out using gas chromatography with mass spectrometer. The instrument was a GCMS QP2010SE® from Shimadzu with an AOC6000® Autosampler. The separation was performed on a ZB-5 MS® column (30 m×0.25 mm×0.25 μm, stationary phase: 95% Dimethylpolysiloxane, 5% Phenyl-Arylene) from Phenomenex. The GC oven temperature was initially held at 100° C. for 1 minute then increased at a pace of 10° C./min to 120° C. and left at this temperature for 3 minutes. Finally, the oven temperature was increased at a pace of 10° C./min to 240° C. and left at this temperature for 10 minutes. The carrier gas was helium at 1 mL/min. Analysis were performed in split mode using a split/splitless injector (Temperature: 250° C., split: 1:20). The SPME fiber was directly injected into the injector and left for 30 minutes. Separated molecules were detected using a mass spectrometer which was operated in electron impact ionization (EI) in both full scan (FS) and single ion monitoring (SIM) modes, so called FASST (Fast Automated SCAN/SIM type) mode. The interface temperature was set at 300° C. and electron impact source temperature at 250° C. The analyser was a quadrupole.
For the measurement of the relative quantity of active ingredient spreading in air, the area of the chromatographic peak corresponding to the compound was measured using Shimadzu GCMS-Solution software.

Data set [5] can be described thus: F3 migration along the stick (top 1 cm, GC/MS). To be noted: F3, five sticks. How it is done:
Three devices containing 40 mL of F3 feline facial pheromone product and five […] sticks were prepared and left on diffusion. A t=1 day, T=3 days, T=10 days, T=15 days and T=22 days after preparation of the devices, one stick was taken on each device and 1 cm of the top of each stick was cut, then extracted with acetone 1 h in an ultrasonic bath and analysed by gas chromatography coupled with mass spectrometry (GC/MS). The same analytical parameters were used for the study C with a liquid injection (injected quantity: […]) Blank analysis and matrix blank analysis were also performed.

Data set [6] in a line: F3 direct diffusion and mass loss, 40 mL and eight sticks with a refill. To be noted: F3, eight sticks. The method, then: To that purpose, three devices containing 40 mL of F3 feline facial pheromone product and eight rattan sticks were prepared and left on diffusion. Every Monday, Wednesday and Friday, the diffusion of the pheromone in air was checked by analysis by gas chromatography coupled with mass spectrometer (GC/MS) and SPME (solid phase microextraction) until there was no liquid left. Then, the solution was refilled and a second study of the diffusion of the pheromone was performed.
Experimentally, the studied device was taken and placed into a closed space under identical conditions than in section E/, and for analyzing the same data.
Each measuring day, the devices were weighed and the level of the solution in the flask was controlled.

For the compound `CCCCCCCC/C=C\CCCCCCCC(=O)OC` [methyl oleate, methyl (Z)-octadec-9-enoate], the “% of the active ingredient in the pheromone” value (from here on “% of the active ingredient”) in data set [1] (day 0) is recorded as 30.8%; in data set [1] (day 7), 30.8%; in data set [1] (day 14), 30.7%; in data set [1] (day 21) it was 30.8%; in data set [2] (day 7), 31.3%; in data set [2] (day 14), 31.5%. Moreover, in data set [2] (day 21), the “% of the active ingredient” value is on record as 32.6%. Besides, the “stability in the block” value in data set [3] is listed as “remained stable”. In data set [4], the “direct diffusion over time” value is on record as “slight increase of the diffusion over time”. In data set [5], the “quantity on the top of the stick over time” value is on record as “more pronounced increase of their quantities over time”. Moreover, the “relative quantity on the top of the stick” value in data set [5] is given as “major compound found on the top of the stick”. For the same compound, in data set [6], the “intensity of direct diffusion” value was “less intensity”.

Consider `CCCCCCCCCCCCCCCC(=O)OC` [methyl palmitate, methyl hexadecanoate], for which the “% of the active ingredient” value in data set [1] (day 0) was 27.3%; in data set [1] (day 7) it was 27.3%; in data set [1] (day 14) it was 27.2%; in data set [1] (day 21), 26.2%; in data set [2] (day 7), 29.8%; in data set [2] (day 14), 30.2%. Besides, the “% of the active ingredient” value in data set [2] (day 21) is 32.5%. Also, the “stability in the block” value in data set [3] is recorded as “remained stable”. The “direct diffusion over time” value in data set [4] is “slight increase of the diffusion over time”. Also, the “quantity on the top of the stick over time” value in data set [5] is “more pronounced increase of their quantities over time”. Further, the “intensity of direct diffusion” value in data set [6] is reported as “less intensity”.
